Laboratory results: EP1379135B1, “FORMULATIONS COMPRISING ENTRAPPED ACTIVE INGREDIENTS AND USES THEREOF” (THE SCRIPPS RESEARCH INSTITUTE, priority 2001, dated 2002)
Entries after “also recorded” stand apart in the source; their conditions may differ.

Key:
[1] = tested on: iNOS protein; assay: iNOS protein expression (Western Immunoblot); assay type: cell-based, human
Description: (§1) Whole cell extracts were prepared from 3 x 10^6 chondrocytes stimulated as described above by lysing the cells on the plate with ice cold lysis buffer (10 mM TrisHCl pH 7.6, 158 mM NaCl, 1 mM EDTA, 0.1% SDS, 1% Triton X-100, leupeptin […], aprotinin 1µg/ml, and 0.5 mM PMSF), which was added immediately before use. The lysates were transferred to Eppendorf tubes and centrifuged at 20,000 g for 30 min at 4 °C. The supernatants were transferred into fresh tubes, and the protein concentration was determined by Bradford assay. Similar amounts of protein were separated by 10% SDS PAGE and transferred to a nitrocellulose filter (Schleicher & Schuell, Keene, NH) by electroblotting. The filter was blocked overnight in 5% milk powder/TBS-T solution and then further incubated with one of the following antibodies: anti-iNOS (C-19, Santa Cruz Biotechnology, Inc., Santa Cruz, CA), anti-COX-2 (Cayman Chemical, Ann Arbor, MI), anti-COX-1 (H-3, Santa Cruz Biotechnology, Inc.), anti-phospho-JNK (phosphoThr 183 /Tyr 185, New England Biolabs, Inc., Beverly, MA), anti-phospho-p38MAP (phospho-Thr […]/Tyr 182, New England Biolabs, Inc.) or anti-phospho-ERK (phosphoThr 180/Tyr 182, New England Biolabs, Inc.) for 2 hrs. […]

[2] = tested on: bradykinin-induced pain; assay: Bradykinin-induced pain after intra-articular administration (walking behavior pain score); assay type: in vivo; conditions: Wistar rats, Figure 7
Description: The purpose of this study was to investigate the analgesic effects of GlcNAc with or without liposomal formulations, injected intra-articularly into the joint of Wistar rats. Pain was induced by intra-articular administration of bradykinin. Adult male Wistar rats with a weight range from 220g to 250g were obtained from Laboratory Animals Centre, National University of Singapore. Bradykinin and GlcNAc were obtained from Sigma. The liposomes were prepared as described above. 50 µl of GlcNAc solution or an GIcNAc formulated liposome suspension was injected into a rat joint cavity. An equal volume of saline was given intra-articularly as a control. 50 µl of bradykinin (60 µg/ml or at the indicated concentration) was given intra-articularly at different time points following the administration of GlcNAc. Changes in walking behavior caused by intra-articular injection of bradykinin were used to define induced pain criteria in rats. The methods used to observe the pain response are defined in Table 2. The degree of pain was assigned a score according to the criteria in Table 3. Table 2 [table] [table]

[3] = In vivo retention of GlcNAc in knee joints after intra-articular administration; set-up: species or system Wistar rats
Description: 50 µl of GlcNAc solution (unlabeled 2.69 mg/ml, labeled 5 µCi/ml, unlabeled:labeled molecule 10,000:1) was injected into knee joint of six rats. These rats (2 animals/time point) were sacrificed at 0, 30 min, and 2 hr after administration of a GlcNAc solution. Two other two rats were injected with normal saline as negative controls. All joints were removed and homogenized with 5 ml of normal saline at 16,000 rpm for about 30 sec. 100 µl of the tissue homogenate was added to 500 µl tissue solubilizer. The solution was incubated at 50 °C for 16 hrs, mixed with 30 µl of glacial acetic acid and 5 ml of liquid scintillation cocktail. The [^3H]GlcNAc activity was measured by a liquid scintillation counter.
Fourteen rats were used for each liposomal formulation. 50 µl of liposome (prepared as disclosed herein, 1.13 µCi/ml, GlcNAc concentration was 0.61 mg/ml, unlabeled:labeled molecule 10,000:1) was injected into each knee joint in twelve rats. Another two rats were injected with 50 µl of normal saline as negative controls. Animals (2 rats/time point) were sacrificed at time points corresponding to 0, 1, 3, 7, 14, 21, and 28 days after administration of GlcNAc. The knee joints were removed and [^3H]GlcNAc activity was determined as disclosed herein.

[4] = tested on: p38; assay: IL-1β induced MAP kinase activation, p38 (phospho Western blot); assay type: cell-based, human; conditions: induced by IL-1β
Description: as §1

[5] = Induction of TGFα1 in chondrocytes with IL-1β; assay type: cell-based, human; conditions: together with IL-1β
[6] = tested on: hexosaminidase; assay: IL-1β mediated increase in hexosaminidase secretion in chondrocytes; assay type: cell-based, human

half-life ([3]; Wistar, rat, knee joint homogenate, 0.1345 mg per knee joint, single intra-articular administration, saline solution): 4.1 min
GlcNAc retention at the rat knee joints ([3]; after intra-articular administration): moved out of the rat joint rapidly
IL-1β mediated increase in hexosaminidase secretion [6]: did not suppress
SMILES: CC(=O)N[C@H]1C(O)O[C@H](CO)[C@@H](O)[C@@H]1O (stereo partly shown) [GlcNAc, N-acetylglucosamine]
expression of iNOS protein [1]: strongly inhibited
analgesic effects on bradykinin-induced pain (pain scores) [2]: small, but statistically insignificantly, analgesic effects; also recorded: small, but statistically insignificant, analgesic effects
p38 MAP kinase activation [4]: does not inhibit
induction of TGFα1 [5]: synergistic with IL-1β
